# From US6472348B1, “Pyridone derivatives and herbicides” (Kumiai Chemical Industry Co., Ltd., priority 1996, dated 2002)
# Experiments:
# [1] = system: China jute (Ab); experiment: Test Example 5: crop plant selectivity by upland field soil treatment (wheat), herbicidal effects; type: in vivo; parameters: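 grade of growth control; 5 = at least 90%; 4 = 70 to 90%; 3 = 50 to 70%; 2 = 30 to 50%; 1 = 10 to 30%; 0 = under 10%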; conditions: dose 6.3 g ai/10a, 21st day after application
# Outline: (§1)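 Upland soil-treatment selectivity test: crop and weed seeds are sown together in sand-filled pots, soil-covered, then treated and grown under glass until rating at 21 days.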
# [2] = system: pale smartweed (Po); experiment: as above; type: in vivo; parameters: scale not given here; conditions: dose 6.3 g ai/10a, 21st day after application
# Outline: as §1
# [3] = system: common lambsquarters (Ch); experiment: as above; type: in vivo; parameters: scale not given here; conditions: dose 6.3 g ai/10a, 21st day after application
# Outline: as §1
# [4] = system: slender amaranth (Am); experiment: as above; type: in vivo; parameters: scale not given here; conditions: dose 6.3 g ai/10a, 21st day after application
# Outline: as §1
# [5] = system: green foxtail (Se); experiment: as above; type: in vivo; parameters: scale not given here; conditions: dose 6.3 g ai/10a, 21st day after application
# Outline: as §1
# [6] = system: corn (Ze); experiment: Test Example 7: crop plant selectivity by upland field soil treatment (corn), phytotoxicity; type: in vivo; parameters: scale not given here; conditions: dose 6.3 g ai/10a, 21st day after application
# Outline: (§2)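 Greenhouse pot test in sand with soil cover over seeds of corn and weeds sown together; scored 21 d after treatment.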
# [7] = system: China jute (Ab); experiment: Test Example 4: crop plant selectivity by upland field soil treatment (cotton), herbicidal effects; type: in vivo; parameters: scale not given here; conditions: dose 6.3 g ai/10 a, evaluated 21st day after application
# Outline: (§3)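 Cotton is sown alongside weeds in pots of sand, covered with soil, and the soil surface is treated. After greenhouse growth, herbicidal activity and phytotoxicity are graded on the 21st day.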
# [8] = system: pale smartweed (Po); experiment: as above; type: in vivo; parameters: scale not given here; conditions: dose 6.3 g ai/10 a, evaluated 21st day after application
# Outline: as §3
# [9] = system: common lambsquarters (Ch); experiment: as above; type: in vivo; parameters: scale not given here; conditions: dose 6.3 g ai/10 a, evaluated 21st day after application
# Outline: as §3
# [10] = system: slender amaranth (Am); experiment: as above; type: in vivo; parameters: scale not given here; conditions: dose 6.3 g ai/10 a, evaluated 21st day after application
# Outline: as §3
# [11] = system: green foxtail (Se); experiment: as above; type: in vivo; parameters: scale not given here; conditions: dose 6.3 g ai/10 a, evaluated 21st day after application
# Outline: as §3
# [12] = system: China jute (Ab); experiment: Test Example 7: crop plant selectivity by upland field soil treatment (corn), herbicidal effects; type: in vivo; parameters: scale not given here; conditions: dose 6.3 g ai/10a, 21st day after application
# Outline: as §2
# [13] = system: pale smartweed (Po); experiment: as above; type: in vivo; parameters: scale not given here; conditions: dose 6.3 g ai/10a, 21st day after application
# Outline: as §2
# [14] = system: common lambsquarters (Ch); experiment: as above; type: in vivo; parameters: scale not given here; conditions: dose 6.3 g ai/10a, 21st day after application
# Outline: as §2
# [15] = system: slender amaranth (Am); experiment: as above; type: in vivo; parameters: scale not given here; conditions: dose 6.3 g ai/10a, 21st day after application
# Outline: as §2
# [16] = system: green foxtail (Se); experiment: as above; type: in vivo; parameters: scale not given here; conditions: dose 6.3 g ai/10a, 21st day after application
# Outline: as §2
# [17] = system: soybean (Gl); experiment: Test Example 6: crop plant selectivity by upland field soil treatment (soybean), phytotoxicity; type: in vivo; parameters: scale not given here; conditions: dose 6.3 g ai/10a, 21st day after application
# Outline: (§4)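 Soybean and weeds sown in sand-filled pots and covered with soil, then treated by soil application. Plants grown in a greenhouse, with herbicidal effect and crop phytotoxicity scored on day 21 after application against a fixed rating scale.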
# [18] = system: barnyardgrass (Ec); experiment: Test Example 2: herbicidal effects by upland field soil treatment; type: in vivo; conditions: 100 g of the active ingredient per 10 ares, evaluated on the 21st day after application;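 note: grade of growth control; 5 = at least 90%; 4 = 70 to 90%; 3 = 50 to 70%; 2 = 30 to 50%; 1 = 10 to 30%; 0 = under 10%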
# From the text: (§5) (Test on Herbicidal Effects by Upland Field Soil Treatment)
# [19] = system: pale smartweed (Po); experiment: as above; type: in vivo; conditions: 100 g of the active ingredient per 10 ares, evaluated on the 21st day after application
# From the text: as §5
# [20] = system: rice flatsedge (Ci); experiment: as above; type: in vivo; conditions: 100 g of the active ingredient per 10 ares, evaluated on the 21st day after application
# From the text: as §5
# [21] = system: common lambsquarters (Ch); experiment: as above; type: in vivo; conditions: 100 g of the active ingredient per 10 ares, evaluated on the 21st day after application
# From the text: as §5
# [22] = system: slender amaranth (Am); experiment: as above; type: in vivo; conditions: 100 g of the active ingredient per 10 ares, evaluated on the 21st day after application
# From the text: as §5
# [23] = system: Digitaria ciliaris (Di); experiment: as above; type: in vivo; conditions: 100 g of the active ingredient per 10 ares, evaluated on the 21st day after application;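 note: grade of growth control; 5 = at least 90%; 4 = 70 to 90%; 3 = 50 to 70%; 2 = 30 to 50%; 1 = 10 to 30%; 0 = under 10%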
# From the text: as §5
# [24] = system: China jute (Ab); experiment: Test Example 6: crop plant selectivity by upland field soil treatment (soybean), herbicidal effects; type: in vivo; parameters: scale not given here; conditions: dose 6.3 g ai/10a, 21st day after application
# Outline: as §4
# [25] = system: pale smartweed (Po); experiment: as above; type: in vivo; parameters: scale not given here; conditions: dose 6.3 g ai/10a, 21st day after application
# Outline: as §4
# [26] = system: common lambsquarters (Ch); experiment: as above; type: in vivo; parameters: scale not given here; conditions: dose 6.3 g ai/10a, 21st day after application
# Outline: as §4
# [27] = system: slender amaranth (Am); experiment: as above; type: in vivo; parameters: scale not given here; conditions: dose 6.3 g ai/10a, 21st day after application
# Outline: as §4
# [28] = system: green foxtail (Se); experiment: as above; type: in vivo; parameters: scale not given here; conditions: dose 6.3 g ai/10a, 21st day after application
# Outline: as §4
# [29] = system: cotton (Go); experiment: Test Example 4: crop plant selectivity by upland field soil treatment (cotton), phytotoxicity; type: in vivo; parameters: scale not given here; conditions: dose 6.3 g ai/10 a, evaluated 21st day after application
# Outline: as §3
# [30] = system: wheat (Tr); experiment: Test Example 5: crop plant selectivity by upland field soil treatment (wheat), phytotoxicity; type: in vivo; parameters: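 grade of crop injury; 5 = at least 90%; 4 = 70 to 90%; 3 = 50 to 70%; 2 = 30 to 50%; 1 = 10 to 30%; 0 = under 10%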; conditions: dose 6.3 g ai/10a, 21st day after application
# Outline: as §1
# [31] = system: barnyardgrass (Ec); experiment: Test Example 1: herbicidal effects by paddy field soil treatment; type: in vivo; conditions: 100 g of the active ingredient per 10 ares, 21st day after the application, index 0-5 of Table 47;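 note: grade of growth control; 5 = at least 90%; 4 = 70 to 90%; 3 = 50 to 70%; 2 = 30 to 50%; 1 = 10 to 30%; 0 = under 10%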
# Outline: (§6)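 Herbicidal effect was scored against a graded standard 21 days after treatment. Seeds were sown in puddled, leveled paddy soil flooded to 3 cm depth, and the active ingredient was applied at 100 g per 10 ares before greenhouse culture.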
# [32] = system: bulrush (Sc); experiment: as above; type: in vivo; conditions: 100 g of the active ingredient per 10 ares, 21st day after the application, index 0-5 of Table 47;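 note: grade of growth control; 5 = at least 90%; 4 = 70 to 90%; 3 = 50 to 70%; 2 = 30 to 50%; 1 = 10 to 30%; 0 = under 10%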
# Outline: as §6
# [33] = system: monochoria (Mo); experiment: as above; type: in vivo; conditions: 100 g of the active ingredient per 10 ares, 21st day after the application, index 0-5 of Table 47
# Outline: as §6
# [34] = system: barnyardgrass (Ec); experiment: Test Example 3: herbicidal effects by upland field foliage treatment; type: in vivo; parameters: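 grade of growth control; 5 = at least 90%; 4 = 70 to 90%; 3 = 50 to 70%; 2 = 30 to 50%; 1 = 10 to 30%; 0 = under 10%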; conditions: 100 g active ingredient per 10 ares, evaluated 14th day after treatment
# Outline: (§7)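 Test plants had been raised from seed for 2 weeks in a greenhouse, in soil-covered sand pots of 120 cm^2, and were returned there after spraying.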
# [35] = system: Diaitaria ciliaris (Di); experiment: as above; type: in vivo; parameters: scale not given here; conditions: 100 g active ingredient per 10 ares, evaluated 14th day after treatment
# Outline: as §7
# [36] = system: pale smartweed (Po); experiment: as above; type: in vivo; parameters: scale not given here; conditions: 100 g active ingredient per 10 ares, evaluated 14th day after treatment
# Outline: as §7
# [37] = system: rice flatsedge (Ci); experiment: as above; type: in vivo; parameters: scale not given here; conditions: 100 g active ingredient per 10 ares, evaluated 14th day after treatment
# Outline: as §7
# [38] = system: common lambsquarters (Ch); experiment: as above; type: in vivo; parameters: scale not given here; conditions: 100 g active ingredient per 10 ares, evaluated 14th day after treatment
# Outline: as §7
# [39] = system: slender amaranth (Am); experiment: as above; type: in vivo; parameters: scale not given here; conditions: 100 g active ingredient per 10 ares, evaluated 14th day after treatment
# Outline: as §7
structure (smiles),measurement,setting,value
"Cn1c(C(F)(F)F)ccc(-c2c(F)cc(Cl)c3oc(CBr)cc23)c1=O [Compound No. 4-7, 3-(2-bromomethyl-7-chloro-5-fluorobenzofuran-4-yl)-1-methyl-6-trifluoromethyl-2-(1H)-pyridone]",Herbicidal effects Ab,[1],5
same,Herbicidal effects Po,[2],5
same,Herbicidal effects Ch,[3],5
same,Herbicidal effects Am,[4],5
same,Herbicidal effects Se,[5],5
same,Phytotoxicity Ze,[6],2
same,Herbicidal effects Ab,[7],5
same,Herbicidal effects Po,[8],5
same,Herbicidal effects Ch,[9],5
same,Herbicidal effects Am,[10],5
same,Herbicidal effects Se,[11],5
same,Herbicidal effects Ab,[12],5
same,Herbicidal effects Po,[13],5
same,Herbicidal effects Ch,[14],5
same,Herbicidal effects Am,[15],5
same,Herbicidal effects Se,[16],5
same,melting point,,142 to 144 °C
same,Phytotoxicity Gl,[17],1
same,Herbicidal effects Ec,[18],5
same,Herbicidal effects Po,[19],5
same,Herbicidal effects Ci,[20],5
same,Herbicidal effects Ch,[21],5
same,Herbicidal effects Am,[22],5
same,Herbicidal effects Di,[23],5
same,Herbicidal effects Ab,[24],5
same,Herbicidal effects Po,[25],5
same,Herbicidal effects Ch,[26],5
same,Herbicidal effects Am,[27],5
same,Herbicidal effects Se,[28],5
same,Phytotoxicity Go,[29],1
same,Phytotoxicity Tr,[30],1
same,Herbicidal effects Ec,[31],5
same,Herbicidal effects Sc,[32],5
same,Herbicidal effects Mo,[33],5
same,Herbicidal effects Ec,[34],5
same,Herbicidal effects Di,[35],5
same,Herbicidal effects Po,[36],5
same,Herbicidal effects Ci,[37],5
same,Herbicidal effects Ch,[38],5
same,Herbicidal effects Am,[39],5
"Cc1cc2c(Cl)cc(F)c(-c3ccc(C(F)(F)F)n(C)c3=O)c2o1 [Compound No. 5-1, 3-(4-chloro-6-fluoro-2-methylbenzofuran-7-yl)-1-methyl-6-trifluoromethyl-2 (1H)-pyridone]",melting point,,138 to 140 °C
same,Herbicidal effects Ec,[18],5
same,Herbicidal effects Po,[19],5
same,Herbicidal effects Ci,[20],5
same,Herbicidal effects Ch,[21],5
same,Herbicidal effects Am,[22],5
same,Herbicidal effects Di,[23],5
same,Herbicidal effects Ec,[31],5
same,Herbicidal effects Sc,[32],5
same,Herbicidal effects Mo,[33],5
same,Herbicidal effects Ec,[34],5
same,Herbicidal effects Di,[35],5
same,Herbicidal effects Po,[36],5
same,Herbicidal effects Ci,[37],5
same,Herbicidal effects Ch,[38],5
same,Herbicidal effects Am,[39],5
"CC(C)Oc1cc(-c2cn(C)c(C(F)(F)F)cc2=O)c(F)cc1Cl [Compound No. 6-7, 5-(4-chloro-2-fluoro-5-isopropoxyphenyl)-1-methyl-2-trifluoromethyl-4(1H)-pyridone]",melting point,,150 to 151 °C
same,Herbicidal effects Ec,[18],5
same,Herbicidal effects Po,[19],5
same,Herbicidal effects Ci,[20],5
same,Herbicidal effects Ch,[21],5
same,Herbicidal effects Am,[22],5
same,Herbicidal effects Di,[23],5
same,Herbicidal effects Ec,[31],5
same,Herbicidal effects Sc,[32],5
same,Herbicidal effects Mo,[33],5
same,Herbicidal effects Ec,[34],5
same,Herbicidal effects Di,[35],5
same,Herbicidal effects Po,[36],5
same,Herbicidal effects Ci,[37],5
same,Herbicidal effects Ch,[38],5
same,Herbicidal effects Am,[39],5
"Cn1cc(-c2cc(OC3CCCC3)c(Cl)cc2F)c(=O)cc1C(F)(F)F [Compound No. 6-14, 5-(4-chloro-2-fluoro-5-cyclopentyloxyphenyl)-1-methyl-2-trifluoromethyl-4(1H)-pyridone]",melting point,,152 to 154 °C
same,Herbicidal effects Ec,[18],5
same,Herbicidal effects Po,[19],5
same,Herbicidal effects Ci,[20],5
same,Herbicidal effects Ch,[21],5
same,Herbicidal effects Am,[22],5
same,Herbicidal effects Di,[23],5
same,Herbicidal effects Ec,[31],5
same,Herbicidal effects Sc,[32],5
same,Herbicidal effects Mo,[33],5
same,Herbicidal effects Ec,[34],5
same,Herbicidal effects Di,[35],5
same,Herbicidal effects Po,[36],5
same,Herbicidal effects Ci,[37],5
same,Herbicidal effects Ch,[38],5
same,Herbicidal effects Am,[39],5
